Data on one molecule can be found in US20230187019A1, “METHOD FOR DETERMINING A DRUG COMBINATION VIA A BLOCKING MODEL OF A MULTI-SITE-TARGETED PROTEIN AND APPLICATIONS THEREOF” (National Tsing Hua University, priority 2021, published 2023).

The target in the experiment is T1, 3CL^pro (Severe acute respiratory syndrome coronavirus 2, UniProt P0DTD1).
T1 construct: A 3CL^pro (Cat. #78042-1) assay kit (BPS Bioscience, CA, USA); purchased BPS Bioscience 78042-1
Nature of the experiment: FRET-based 3CL^pro enzyme activity assay. The class given is biochemical. The following applies: single use, 3 to 90 μM.

Procedure: The intensity of this fluorescence is proportional to the protease activity.
Inhibition percentage is calculated by “1−(Itest−Isubstrate)/(Ipositive−Isubstrate),” where I represents the value of inhibition ability.
The FRET (fluorescence resonance energy transfer)-based assay was designed for 3CL^pro activity assay and explained in FIG. 10. The 3CL^pro enzyme assay was developed in a 96-well black microplate with a total volume of 50 μL. 30 μL of 0.5 ng/μL enzyme in a reaction buffer was added into each well, followed by the addition of 10 μL substrate solution to a final concentration of 40 μM.

In the case of `CC(C)C[C@@H](N)C(=O)N[C@H]1C(=O)N[C@@H](CC(N)=O)C(=O)N[C@H]2C(=O)N[C@H]3C(=O)N[C@H](C(=O)N[C@H](C(=O)O)c4cc(O)cc(O)c4-c4cc3ccc4O)[C@H](O)c3ccc(c(Cl)c3)Oc3cc2cc(c3O[C@@H]2O[C@H](CO)[C@@H](O)[C@H](O)[C@H]2O[C@H]2C[C@](C)(N)[C@H](O)[C@H](C)O2)Oc2ccc(cc2Cl)[C@H]1O` [norvancomycin], the “inhibition of 3CL^pro” value is recorded as 20 to 30%.
